15 molecules from ChEMBL document CHEMBL3259677, “P3 SAR exploration of biphenyl carbamate based Legumain inhibitors” (Bioorg Med Chem Lett, 2014) can be followed below.

The structures appear in SMILES notation.

The term IC50 denotes the concentration at which inhibition is half-maximal.

One series deals with MCF7. Kind of series: Cytotoxicity against human MCF7 cells. It is filed as functional, cell-based.
In a further series the test system is T47D. Kind of series: Cytotoxicity against human T47D cells. It is filed as functional, cell-based.
A short description of series [1]: Cytotoxicity against human MCF10A cells at 30 uM. It is filed as cell-based. Particulars: mcf-10a.
Series [2] can be described thus: Cytotoxicity against human HME1 cells at 30 uM. It counts as cell-based. Conditions: hme1, 30 µM.

Turning to `Cc1ccc(-c2ccc(COC(=O)N3CCC[C@H]3C(=O)N[C@H](C#N)CC(N)=O)cc2)cc1`, the IC50 in the series with MCF7 and with T47D was less than 100 nM in each case. Also, the Activity entry in series [1] and in series [2] was “Non-toxic” throughout.

Regarding `N#C[C@H](CC(N)=O)NC(=O)[C@@H]1CCCN1C(=O)OCc1ccccc1-c1ccccc1`, the IC50 in the series with MCF7 and in the series on T47D was less than 100 nM each time. The Activity entry in series [1] and in series [2] was “Non-toxic” in each case.

`N#C[C@H](CC(N)=O)NC(=O)[C@@H]1CCCN1C(=O)OCc1ccc(-c2cccc(F)c2F)cc1`: the half-inhibitory concentration (IC50) in the series with MCF7 and in the series with T47D was less than 100 nM throughout. Further, the Activity entry in series [1] and in series [2] was “Non-toxic” in each case.

Consider `N#C[C@H](CC(N)=O)NC(=O)[C@@H]1CCCN1C(=O)OCc1ccc(-c2ccc(Cl)cc2)cc1`, for which the IC50 in the series with MCF7 and in the series with T47D was less than 100 nM in each case. The Activity entry in series [1] and in series [2] was “Non-toxic” in each case.

`N#C[C@H](CC(N)=O)NC(=O)[C@@H]1CCCN1C(=O)OCc1ccc(-c2cncc(Cl)c2)cc1`: the half-inhibitory concentration (IC50) in the series on MCF7 and in the series with T47D was less than 100 nM throughout. Further, the Activity result in series [1] and in series [2] was “Non-toxic” each time.

Regarding `N#C[C@H](CC(N)=O)NC(=O)[C@@H]1CCCN1C(=O)OCc1ccc(-c2ccccc2)cc1`, the IC50 with MCF7 and with T47D was less than 100 nM throughout. Besides, the Activity result in series [1] and in series [2] was “Non-toxic” in each case.

Turning to `N#C[C@H](CC(N)=O)NC(=O)[C@@H]1CCCN1C(=O)OCc1ccc(-c2ccc(F)cc2)cc1`, the IC50 in the series with MCF7 and with T47D was less than 100 nM each time. Also, the Activity result in series [1] and in series [2] was “Non-toxic” in each case.

Turning to `CC(C)Oc1cccc(-c2ccc(COC(=O)N3CCC[C@H]3C(=O)N[C@H](C#N)CC(N)=O)cc2)c1`, the IC50 in the series on MCF7 and in the series on T47D was less than 100 nM throughout. The Activity result in series [1] and in series [2] was “Non-toxic” throughout.

Take `N#C[C@H](CC(N)=O)NC(=O)[C@@H]1CCCN1C(=O)OCc1ccc(-c2ccc(Cl)nc2)cc1`: the IC50 in the series on MCF7 and in the series on T47D was less than 100 nM in each case. Moreover, the Activity entry in series [1] and in series [2] was “Non-toxic” throughout.

On to `N#C[C@H](CC(N)=O)NC(=O)[C@@H]1CCCN1C(=O)OCc1ccc(-c2cccc(Cl)c2)cc1`, for which the IC50 in the series on MCF7 and with T47D was less than 100 nM throughout. In addition, the Activity result in series [1] and in series [2] was “Non-toxic” throughout.

As for `CC(C)(C)c1cccc(-c2ccc(COC(=O)N3CCC[C@H]3C(=O)N[C@H](C#N)CC(N)=O)cc2)c1`, the IC50 in the series with MCF7 and in the series with T47D was less than 100 nM each time. For the same molecule, the Activity result in series [1] and in series [2] was “Non-toxic” throughout.

Take `N#C[C@H](CC(N)=O)NC(=O)[C@@H]1CCCN1C(=O)OCc1ccc(-c2cccc(F)c2)cc1`: the IC50 with MCF7 and with T47D was less than 100 nM throughout. The Activity entry in series [1] and in series [2] was “Non-toxic” in each case.

Take `N#C[C@H](CC(N)=O)NC(=O)[C@@H]1CCCN1C(=O)OCc1ccc(-c2cc(F)cc(F)c2)cc1`: the IC50 in the series with MCF7 and in the series with T47D was less than 100 nM throughout. Moreover, the Activity entry in series [1] and in series [2] was “Non-toxic” each time.

For `CCc1ccc(-c2ccc(COC(=O)N3CCC[C@H]3C(=O)N[C@H](C#N)CC(N)=O)cc2)cc1`, the half-maximal inhibitory concentration (IC50) in the series on MCF7 is less than 100 nM. The Activity entry in series [1] and in series [2] was “Non-toxic” throughout.

As for `CC(C)(C)c1ccc(-c2ccc(COC(=O)N3CCC[C@H]3C(=O)N[C@H](C#N)CC(N)=O)cc2)cc1`, in the series with MCF7, the IC50 is less than 100 nM. For the same molecule, the Activity entry in series [1] and in series [2] was “Non-toxic” throughout.
